Test results reported in patent publication US20020009421A1, “Therapy following skin injury from exposure to ultraviolet radiation” (priority 2000, published 2002).

What was measured:
sunburn = assay: In Vivo Evaluation: sunburn in a human subject after about six hours of intense sunlight, oral self-administration; details: for relief of pain: oral self-administration, adult with severe sunburn, celecoxib 100 mg
Excerpt: 1. Subject: An adult, person of light complexion whose skin had not been substantially exposed to strong sunlight for approximately six months.
2. Protocol: The subject was exposed to intense sunlight at a swimming pool for approximately six hours.
3. […] At that time the subject self-administered an oral dose of acetaminophen (Extra Strength Tylenol®) to relieve the pain. […] Later in the evening the subject was unable to sleep due to the continued pain. At that time the subject self-administered a 100 mg dose of Celebrex® (celecoxib). […] Approximately twelve hours later the subject took a second dose of celecoxib to relieve the onset of discomfort due to the sunburn.

UV-B mediated injury = details: cited from earlier work
[1] = test system: UV radiation-induced tumor formation and UV-B mediated inflammatory response; details: oral administration, cited from earlier work

Structure (SMILES)	relief of pain (sunburn)	time to almost complete relief of pain following administration (sunburn; 100 mg oral dose of Celebrex, adult with sunburn) [h]	healing of the burn (blistering, peeling of surface skin) (sunburn; two oral doses of celecoxib about twelve hours apart, subject's report)	cutaneous inflammatory response after exposure of skin to UV-B radiation (UV-B mediated injury; oral administration)	parameters of UV-B mediated injury (UV-B mediated injury; topical application)	tumor formation ([1]; animals chronically exposed to UV radiation)	acute UV-B mediated inflammatory response involving increased cell proliferation and edema ([1]; following acute or chronic exposure to UV radiation)	UV-B induced prostaglandin synthesis [1]
CC(=O)Nc1ccc(O)cc1 [acetaminophen]	no relief in pain	–	–	–	–	–	–	–
Cc1ccc(-c2cc(C(F)(F)F)nn2-c2ccc(S(N)(=O)=O)cc2)cc1 [celecoxib, 4-[5-(4-methylphenyl)-3-(trifluoromethyl)-1H-pyrazol-1-yl]benzenesulfonamide]	almost complete relief of pain	≤ 1	rapid healing of the burn with no blistering or peeling of surface skin	failed to block the cutaneous inflammatory response	reduce many of the parameters of UV-B mediated injury	reduced tumor formation	failed to inhibit the acute UV-B mediated inflammatory response	block the UV-B induced prostaglandin synthesis
